Data set [1] has as its system SRB. Nature of the data set: Effect of special blends on SRB growth in natural (Galveston) seawater. It is filed as cell-based. The settings on record: 25 PPM. On the procedure: (§1) More than thirty special blends containing NaOH, oxygen scavenger and scale inhibitor were made. Time kill studies were conducted to evaluate the effect of these special blends on bacterial growth. For the time kill studies cultures of SRB and anaerobic bacteria as well as filtered Galveston seawater were used. Galveston seawater was filtered through 50 μm filter. The time kill studies were basically the same as in the raised pH studies described earlier. The only difference was that in these studies, the pH was raised by the special blends and natural seawater was included in addition to bacterial cultures. Usually, 1,500 to 3,000 PPM of the special blends were used to raise the pH to 9.6-9.8. In some experiments, the seawater was treated only with NaOH or oxygen scavenger for comparison purposes. A piece of mild carbon steel coupon (1″×0.3″) was inserted into the treated water to monitor MIC and corrosion in all of the experiments.
(§2) The bacterial growth was monitored for 20 days. The monitoring of coupons in the treated samples continued for weeks to months. The products that inhibited the bacterial growth and kept the coupons clean were selected. These selected products were re-evaluated using the bacterial cultures and the filtered seawater.

Data set [2] in a line: Deactivation of biocides / biocide residual in Galveston seawater. It is filed as physicochemical. On the procedure:
The pH of fresh water or seawater was adjusted and desired concentrations of biocides were added. The concentration of biocides in the water was measured periodically. Such monitoring provided information on the deactivation rate of biocides. To monitor the concentration of THPS and glutaraldehyde a LaMotte kit and a Glutatect kit were used, respectively. The LaMotte Company supplies the LaMotte kit. Alden Scientific manufactures the Glutatect kit. After the complete deactivation of biocide, the water was tested for aquatic toxicity.
Galveston seawater was treated with NaOH solution and with blends of NaOH and chemicals separately to raise the pH to 9-10.25. 12-100 PPM of 50% glutaraldehyde was added to each aliquot of pH-adjusted water. The treated water was left at room temperature. The concentration of glutaraldehyde was monitored for 9-20 days, using Glutatect kit. In another experiment, 100 PPM of 75% THPS was added to Galveston seawater following pH adjustment with NaOH. THPS concentration was monitored using a LaMotte Kit.

Data set [3] deals with Sulfate Reducing Bacteria (SRB). In words: Evaluation of biocides in pH adjusted medium containing SRB, with coupons. In kind it is cell-based. The settings on record: for Log of Bacterial Cells/ml: SRB medium. Here is the method: (§3) In these experiments, SRB or FAAPB cultures were treated with various concentrations of biocides, after raising the pH to 9.8-10.00. The bacterial growth in the treated samples was estimated by the serial dilution method. The visual appearance of coupons in treated and untreated samples was recorded. An aldehyde and phosphonium quat were used for biocides.

A further data set has as its system anaerobic bacteria. In words: Time kill study of special blends, anaerobic bacteria culture. It is filed as cell-based. The settings on record: 50 PPM (pH ~7). On the procedure: as §1, §2
Data set [4] relates to SRB. In words: Time kill study of special blends, SRB culture. In kind it is cell-based. The settings on record: 50 PPM (pH ~7). On the procedure: as §1, §2
Data set [5] concerns sulfate reducting bacteria (SRB). In words: Time kill study of SRB cultures at raised pH (NaOH), serial dilution. It is filed as cell-based. The following applies: 200 PPM, combined with high pH. Here is the method:
Cultures (in API media) of sulfate reducting bacteria (SRB) and facultative anaerobic acid producing bacteria (FAAPB) were treated separately with dilute NaOH solution to raise the pH of the culture to 9.8-10.00. The level of bacterial growth was estimated by the serial dilution method. In some experiments oxygen scavenger (ammonium bisulfite) was also included to see if it has any effect on bacterial growth. No coupons were used in these experiments.
as §3

For data set [6] the following is noted: anaerobic condition, cited from earlier work.
Another data set has as its system M. Bahia. In words: Static renewal toxicity test of treated seawater. In kind it is in vivo. The following applies: 150 PPM of THPS. On the procedure: (§4) Three of the most promising special blends were tested 249C, 246C, and 283C. Galveston seawater was treated separately with 249C, 246C and 283C at 3,000 PPM, 2,000 PPM and 1,450 PPM respectively. The treated water was then subjected to a static renewal toxicity test (using Mysid and Menidid species). The EPA requires this toxicity test for water discharged into the Gulf of Mexico.

The next data set has as its system M. Beryllina. Nature of the data set: Static renewal toxicity test of treated seawater. It is filed as in vivo. The following applies: 150 PPM of THPS. Here is the method: as §4
The mark [7] stands for this setting: Sea Water without pH adjustment, 100 PPM added.

Like-named read-outs stand apart in the source and are kept apart here.

As for `O=CCCCC=O` [Glutaraldehyde, glutaraldehyde], the “Log of Bacterial Cells/ml” value with SRB [1] is given as 1 Log of Bacterial Cells/ml; in [3] (Concentration 12.5), 0 Log of Bacterial Cells/ml; in data set [3] (Concentration 25) it was 0-1 Log of Bacterial Cells/ml; in data set [3] (Concentration 75) it was 0 Log of Bacterial Cells/ml; in data set [3] (Concentration 150), 0 Log of Bacterial Cells/ml. Also, the “PPM Biocide after 9 Days” value in data set [2] (Sea Water pH 10, 100 PPM added) is 10-20 PPM; in data set [2] (setting [7]), 20-40 PPM. Also, the “PPM Biocide at 0 Hr” value is “˜40 PPM” in [2] (Sea Water pH 10, 100 PPM added) and “˜40 PPM” in [2] (setting [7]). The “PPM Biocide, 2 Days” value in data set [2] (Sea Water pH 10, 100 PPM added) is 20-40 PPM; in data set [2] (setting [7]), 20-40 PPM. The biocide residual result in [2] (seawater treated with special blends, after 5-10 days) was “below 5 PPM”. Also, the “concentration sufficient to inhibit planktonic as well as sessile bacterial growths” value in data set [3] (water with pH adjusted to 10) is recorded as 10-12 PPM. Moreover, the “Log of Bacterial Cells/ml, Anaerobic” value in the data set with anaerobic bacteria was “≧3 Log of Bacterial Cells/ml”. In addition, the “Log of Bacterial Cells/ml, SRB” value in the data set on SRB [4] was 0-1 Log of Bacterial Cells/ml.
Take `N.O=S(O)O` [NH4HSO3, ammonium bisulfite]: the “Log of SRB Cells/mL” value in data set [5] (Experiment 1 (7 Days)) and in [5] (Experiment 2 (7 Days)) was 2 Log of SRB Cells/mL each time.
On to “tetrakis hydroxymethyl phosphonium sulfate [THPS]”, for which the “Log of Bacterial Cells/ml” value with SRB [1] is 1 Log of Bacterial Cells/ml; in data set [3] (Concentration 18.75), 0-3 Log of Bacterial Cells/ml; in data set [3] (Concentration 37.5), 0-1 Log of Bacterial Cells/ml; in data set [3] (Concentration 112.5) it was 0 Log of Bacterial Cells/ml. Further, the “PPM Biocide after 9 Days” value came to 14 PPM in [2] (Sea Water pH 10, 100 PPM added) and 68 PPM in [2] (setting [7]). Besides, the “PPM Biocide at 0 Hr” value in data set [2] (Sea Water pH 10, 100 PPM added) is 136 PPM; in data set [2] (setting [7]), 132 PPM. For the same molecule, the “PPM Biocide, 2 Days” value in data set [2] (Sea Water pH 10, 100 PPM added) is given as 58 PPM; in data set [2] (setting [7]), 104 PPM. The half life in data set [6] (pH 7) is given as 72 days; in data set [6] (pH 9) it was 7 days. For the same molecule, the LOEC is <9.6/9.6% with M. Bahia and 24.6% with M. Beryllina. In addition, the NOEC with M. Bahia is recorded as <9.6/9.6%; in the data set with M. Beryllina it was 12.0%. In the data set with anaerobic bacteria, the “Log of Bacterial Cells/ml, Anaerobic” value was “≧3 Log of Bacterial Cells/ml”. Besides, the “Log of Bacterial Cells/ml, SRB” value with SRB [4] is recorded as 0-1 Log of Bacterial Cells/ml.

The values are drawn from US6815208B2, “Chemical treatment for hydrostatic test” (Champion Technologies, Inc., priority 2001, dated 2004).
